Measurements from ChEMBL document CHEMBL3785053, “Synthesis and screening of ursolic acid-benzylidine derivatives as potential anti-cancer agents” (Eur J Med Chem, 2016).

Experiments:
[1] = tested on: A549; assay: Cytotoxicity against human A549 cells at 50 uM after 48 hrs by MTT assay; type: functional; conditions: A549, 48 h, read-out: GI
[2] = Cytotoxicity against human HCT116 cells at 50 uM after 48 hrs by MTT assay; type: functional; conditions: HCT-116, 48 h, read-out: GI
[3] = Cytotoxicity against human THP1 cells after 48 hrs by MTT assay; type: functional, cell-based; conditions: THP-1, 48 h
[4] = Cytotoxicity against human HCT116 cells after 48 hrs by MTT assay; type: functional, cell-based; conditions: HCT-116, 48 h
[5] = Cytotoxicity against human THP1 cells at 50 uM after 48 hrs by MTT assay; type: functional; conditions: THP-1, 48 h, read-out: GI
[6] = tested on: MCF7; assay: Cytotoxicity against human MCF7 cells at 50 uM after 48 hrs by MTT assay; type: functional; conditions: MCF7, 48 h, read-out: GI
[7] = tested on: A549; assay: Cytotoxicity against human A549 cells after 48 hrs by MTT assay; type: functional, cell-based; conditions: A549, 48 h
[8] = tested on: MCF7; assay: Cytotoxicity against human MCF7 cells after 48 hrs by MTT assay; type: functional, cell-based; conditions: MCF7, 48 h
[9] = Cytotoxicity against human FR2 cells at 50 uM after 48 hrs by MTT assay; type: cell-based; conditions: read-out: GI
[10] = Cytotoxicity against human FR2 cells after 48 hrs by MTT assay; type: cell-based; conditions: FR2, 48 h

SMILES	inhibition of growth at 50 µM [1] [%]	inhibition of growth at 50 µM [2] [%]	IC50 [3] [µM]	IC50 [4] [µM]	inhibition of growth at 50 µM [5] [%]	inhibition of growth at 50 µM [6] [%]	IC50 [7] [µM]	IC50 [8] [µM]	inhibition at 48 h, 50 µM [9] [%]	IC50 [10] [µM]
O=c1[nH]cc(F)c(=O)[nH]1 [FLUOROURACIL]	82	79	1.7	2.3	89	92	1.4	2	–	–
C[C@H]1[C@H](C)CC[C@]2(C(=O)O)CC[C@]3(C)C(=CC[C@@H]4[C@@]5(C)C/C(=C\c6ccc(Cl)cc6)C(=O)C(C)(C)[C@@H]5CC[C@]43C)[C@H]12	99	99	12	15	99	99	2.9	4.1	99	69
C[C@H]1[C@H](C)CC[C@]2(C(=O)O)CC[C@]3(C)C(=CC[C@@H]4[C@@]5(C)C/C(=C\c6cccc7ccccc67)C(=O)C(C)(C)[C@@H]5CC[C@]43C)[C@H]12	58	99	2.1	0.64	90	96	17	12	97	68
C[C@H]1[C@H](C)CC[C@]2(C(=O)O)CC[C@]3(C)C(=CC[C@@H]4[C@@]5(C)CCC(=O)C(C)(C)[C@@H]5CC[C@]43C)[C@H]12 [URSONIC ACID]	78	53	13	2.3	88	42	15	56	86	24
C[C@H]1[C@H](C)CC[C@]2(C(=O)O)CC[C@]3(C)C(=CC[C@@H]4[C@@]5(C)C/C(=C\c6cccc(Cl)c6)C(=O)C(C)(C)[C@@H]5CC[C@]43C)[C@H]12	65	90	5	4.1	85	70	7	29	80	45
C[C@H]1[C@H](C)CC[C@]2(C(=O)O)CC[C@]3(C)C(=CC[C@@H]4[C@@]5(C)C/C(=C\c6ccc([N+](=O)[O-])cc6[N+](=O)[O-])C(=O)C(C)(C)[C@@H]5CC[C@]43C)[C@H]12	98	98	4.1	5	98	98	2	4.1	95	70
C[C@H]1[C@H](C)CC[C@]2(C(=O)O)CC[C@]3(C)C(=CC[C@@H]4[C@@]5(C)C/C(=C\c6ccccc6)C(=O)C(C)(C)[C@@H]5CC[C@]43C)[C@H]12	60	95	16	14	90	98	18	23	90	70
COc1ccccc1/C=C1\C[C@]2(C)[C@H]3CC=C4[C@@H]5[C@@H](C)[C@H](C)CC[C@]5(C(=O)O)CC[C@@]4(C)[C@]3(C)CC[C@H]2C(C)(C)C1=O	90	98	0.9	2.1	96	99	0.5	5	85	8.6
C[C@H]1[C@H](C)CC[C@]2(C(=O)O)CC[C@]3(C)C(=CC[C@@H]4[C@@]5(C)C/C(=C\c6ccc(O)cc6)C(=O)C(C)(C)[C@@H]5CC[C@]43C)[C@H]12	98	99	4.1	15	99	98	2.1	5	90	70
C[C@H]1[C@H](C)CC[C@]2(C(=O)O)CC[C@]3(C)C(=CC[C@@H]4[C@@]5(C)C/C(=C\c6ccccc6[N+](=O)[O-])C(=O)C(C)(C)[C@@H]5CC[C@]43C)[C@H]12	64	91	1.1	5	86	73	6.4	30	78	44
C[C@H]1[C@H](C)CC[C@]2(C(=O)O)CC[C@]3(C)C(=CC[C@@H]4[C@@]5(C)C/C(=C\c6ccc(Br)cc6)C(=O)C(C)(C)[C@@H]5CC[C@]43C)[C@H]12	60	53	5	32	95	98	15	5	95	35
C[C@H]1[C@H](C)CC[C@]2(C(=O)O)CC[C@]3(C)C(=CC[C@@H]4[C@@]5(C)C/C(=C\c6ccc7ccccc7c6)C(=O)C(C)(C)[C@@H]5CC[C@]43C)[C@H]12	60	89	5	0.53	98	90	16	21	75	40
C[C@H]1[C@H](C)CC[C@]2(C(=O)O)CC[C@]3(C)C(=CC[C@@H]4[C@@]5(C)C/C(=C\c6ccc([N+](=O)[O-])cc6)C(=O)C(C)(C)[C@@H]5CC[C@]43C)[C@H]12	99	95	14	12	95	95	2	5	99	69
COc1cccc(/C=C2\C[C@]3(C)[C@H]4CC=C5[C@@H]6[C@@H](C)[C@H](C)CC[C@]6(C(=O)O)CC[C@@]5(C)[C@]4(C)CC[C@H]3C(C)(C)C2=O)c1	84	65	12	23	95	98	0.65	4.2	85	40
C[C@H]1[C@H](C)CC[C@]2(C(=O)O)CC[C@]3(C)C(=CC[C@@H]4[C@@]5(C)CC[C@H](O)C(C)(C)[C@@H]5CC[C@]43C)[C@H]12 [URSOLIC ACID]	61	53	9.1	42	84	57	–	–	66	31
